From patent publication US20250339402A1, “EFFECTIVE MEANS TO MODULATE NMDA RECEPTOR-MEDIATED TOXICITY” (FUNDAMENTAL PHARMA GMBH, priority 2022, published 2025)
Structures can show the parent of a compound that is named as a salt.

These compounds were tested on Primary mouse hippocampal neurons (assay: Excitotoxic (glutamate/NMDA-induced) cell death in primary neuronal cultures, protection index). Details: Mus musculus, Hippocampal neuron; third subset; excitotoxic cell death in primary neuronal cultures.
Format: cell-based
Procedure: Primary mouse hippocampal neurons were prepared as previously described (Bading & Greenberg, Science, 1991; 253: 912-914; Zhang et al, Neuron, 2007, 53: 549-562) and maintained in Neurobasal-A medium supplemented with 2% B27, 5 mM L-Glutamax, and 0.5% Penicillin/Streptomycin until challenged with NMDA on days in vitro (DIV) 10. Glutamate-induced cell death was analyzed in a real-time manner by monitoring nuclear localized mCherry with IncuCyte® S3 Live-Cell Analysis System (Sartorius AG, Germany). Primary neurons plated in 24 well plates were infected with rAAV-hSyn-mCherry on DIV3 and challenged with 1 μM or 20 μM glutamate on DIV10. All compounds were added to the culture 30 min prior to glutamate/NMDA insult. Images were acquired following the glutamate application for 24 h with a 2 h interval, where 9-16 images were obtained via a 20×objective for each condition at each time point. Cell deaths were quantified by analyzing the existence of nuclear localized mCheery via the Basic Analyzer with Incucyte® 2021 software, size and average intensity were used as exclusion criteria.
In order to evaluate the protective effects of various compounds, a quantification method was developed to determine each compound's protection index. The protection index (from 0.0 to 10.0) was calculated by the area above the curve (AAC) during a 24 h excitotoxic stimuli, where the cell survival was normalized to the 0 h (FIG. 2), following the equation: […]
Where AAC represents for each compound, AACbasal represents for the basal condition without excitotoxic insult, AACVeh represents for the vehicle control with excitotoxic insult. Based on the equation, vehicle (DMSO) has a protection index at 0.0 and compound P401 of WO 2020/079244 has a protection index at 6.0 (at 10 μM).
The inventors also performed experiments with Group A compounds at lower concentration in a 3-fold dilution matter ([…]: 3.0, 1.0, 0.3, 0.1, 0.03) and were able to achieve a similar protection effect as 10 μM compound P401, but at a lower concentration.
Work on `CC(c1scc(Br)c1F)N(CCN)C1CC1` (stereo not shown) [Compound 297A, N′-[1-(4-bromo-3-fluoro-2-thienyl)ethyl]-N′-cyclopropyl-ethane-1,2-diamine TFA salt] yielded an IC50 of 81 nM.
In the case of `NCCN(C1CC1)C(c1cccc(Cl)c1F)C(F)(F)C(F)(F)F` (stereo not shown) [Compound 270, N1-(1-(3-chloro-2-fluorophenyl)-2,2,3,3,3-pentafluoropropyl)-N1-cyclopropylethane-1,2-diamine TFA salt], the IC50 is reported as 13 nM.
In the case of `CC(c1cccc(Br)c1F)N(CCN)C1CC1` (stereo not shown) [Compound 191, N^1-(1-(3-bromo-2-fluorophenyl)ethyl)-N^1-cyclopropylethane-1,2-diamine hydrochloride], the IC50 is reported as 230 nM.
For `NCCN(C1CC1)C(CC(F)(F)F)c1cccc(Cl)c1F` (stereo not shown) [Compound 247, N^1-(1-(3-chloro-2-fluorophenyl)-3,3,3-trifluoropropyl)-N^1-cyclopropylethane-1,2-diamine hydrochloride], the IC50 was 10 nM.
Compound `CC(c1scc(C#N)c1F)N(CCN)C1CC1` (stereo not shown) [Compound 297, 5-[1-[2-aminoethyl(cyclopropyl)amino]ethyl]-4-fluoro-thiophene-3-carbonitrile TFA salt] has an IC50 of 974 nM.
`CC(c1cc(Cl)cs1)N(CCN)C1CC1` (stereo not shown) [Compound 279, N′-[1-(4-chloro-2-thienyl)ethyl]-N′-cyclopropyl-ethane-1,2-diamine hydrochloride] was tested, and the IC50 was 230 nM.
Compound `N#Cc1cccc(C(CC(F)(F)F)N(CCN)C2CC2)c1F` (stereo not shown) [Compound 280, 3-(1-((2-aminoethyl)(cyclopropyl)amino)-3,3,3-trifluoropropyl)-2-fluorobenzonitrile hydrochloride] has an IC50 of 36 nM.
Compound `NCCN(C1CC1)C(c1cccc(Cl)c1F)C1CCCC1` (stereo not shown) [Compound 268] has an IC50 of 280 nM.
Work on `CC(C)C(c1cccc(Br)c1F)N(CCN)C1CC1` (stereo not shown) [Compound 294, N′-[1-(3-bromo-2-fluoro-phenyl)-2-methyl-propyl]-N′-cyclopropyl-ethane-1,2-diamine TFA salt] yielded an IC50 of 10 nM.
For `CC(c1cccc(F)c1Cl)N(CCN)C1CC1` (stereo not shown) [Compound 246], the IC50 was 500 nM.
In the case of `CC(c1c(Cl)ccc(Cl)c1F)N(CCN)C1CC1` (stereo not shown) [Compound 242], the IC50 is reported as 300 nM.
`CC(C)C(c1cccc(Cl)c1F)N(CCN)C1CC1` (stereo not shown) [Compound 225] gave an IC50 of 5 nM.
In the case of `CCC(c1c(F)ccc(C#N)c1F)N(CCN)C1CC1` (stereo not shown) [Compound 259], the IC50 is reported as 32 nM.
Compound `CC(C)C(c1cccc(Cl)c1F)N(CCN)CC(F)F` (stereo not shown) [Compound 282, N′-[1-(3-chloro-2-fluoro-phenyl)-2-methyl-propyl]-N′-(2,2-difluoroethyl)ethane-1,2-diamine TFA salt] has an IC50 of 51 nM.
In the case of `NCCN(C1CC1)C(c1cccc(Br)c1F)C(F)(F)F` (stereo not shown) [Compound 261A, N′-[1-(3-bromo-2-fluoro-phenyl)-2,2,2-trifluoro-ethyl]-N′-cyclopropyl-ethane-1,2-diamine hydrochloride], the IC50 is reported as 33 nM.

Same assay, conditions: first subset; protection index from area above curve over 24 h glutamate/NMDA insult; compounds added 30 min before; 10 μM, Group A also at lower concentrations
`CCN(CCN)Cc1cc(Cl)ccc1F` [Compound 95] was tested, and the “Biological Activity Rating” value was “B (With a protection index between 5.0 to 7.0, provides a comparable protection to compound P401 (10 μM) at 10 μM.)”.
In the case of `CSCCN(CCN)Cc1cccc(Cl)c1` [Compound 126], the “Biological Activity Rating” value is reported as “B (With a protection index between 5.0 to 7.0, provides a comparable protection to compound P401 (10 μM) at 10 μM.)”.
`NCCN(Cc1cccc(Cl)c1)CC1CC1` [Compound 134] was tested, and the “Biological Activity Rating” value was “B (With a protection index between 5.0 to 7.0, provides a comparable protection to compound P401 (10 μM) at 10 μM.)”.
`NCCN(Cc1cccc(Cl)c1)C1CCCCC1` [Compound 124] was tested, and the “Biological Activity Rating” value was “B (With a protection index between 5.0 to 7.0, provides a comparable protection to compound P401 (10 μM) at 10 μM.)”.
In the case of `NCCN(Cc1cccc(Cl)c1)CC1CCC1` [Compound 135], the “Biological Activity Rating” value is reported as “B (With a protection index between 5.0 to 7.0, provides a comparable protection to compound P401 (10 μM) at 10 μM.)”.
With `CCN(CCN)Cc1cccc(Cl)c1F` [Compound 91] the “Biological Activity Rating” value was “A (With a protection index over 7.0, provides a significantly better protection over compound P401 (10 μM) at 10 μM.)”.
With `C=CCN(CCN)Cc1cccc(Cl)c1` [Compound 136] the “Biological Activity Rating” value was “A (With a protection index over 7.0, provides a significantly better protection over compound P401 (10 μM) at 10 μM.)”.
In the case of `CCN(CCN)Cc1cccc(C#N)c1F` [Compound 175, 3-(((2-aminoethyl)(ethyl)amino)methyl)-2-fluorobenzonitrile TFA salt], the “Biological Activity Rating” value is reported as “A+ (With a protection index between 5.0 to 7.0, provides a comparable protection to compound P401 (10 μM) at 3.0 μM.)”.
With `CCN(CCN)Cc1c(F)ccc(Cl)c1F` [Compound 92] the “Biological Activity Rating” value was “A (With a protection index over 7.0, provides a significantly better protection over compound P401 (10 μM) at 10 μM.)”.
With `C=CCC(=O)N(CCN)Cc1cccc(Cl)c1` [Compound 137, N-(2-aminoethyl)-N-[(3-chlorophenyl)methyl]but-3-enamide hydrochloride] the “Biological Activity Rating” value was “A (With a protection index over 7.0, provides a significantly better protection over compound P401 (10 μM) at 10 μM.)”.

Same assay, conditions: second subset; protection index from area above curve over 24 h glutamate/NMDA insult; compounds added 30 min before; 10 μM, Group A also at lower concentrations
With `CC(c1cccc(Cl)c1F)N(CCN)C1CC1` (single isomer, unassigned; (-)) [Compound 220B, (−)-N1-(1-(3-chloro-2-fluorophenyl)ethyl)-N1-cyclopropylethane-1,2-diamine] the “Biological Activity Rating” value was “A++++ (With a protection index between 5.0 to 7.0, provides a comparable protection to compound P401 (10 μM) at 0.1 μM.)”.
For `CC(c1cccc(Cl)c1F)N(CCN)C1CCC1` (stereo not shown) [Compound 180, N1-(cyclobutyl)-N1-(1-(3-chloro-2-fluorophen, l)ethyl)ethane-1,2-diamine hydrochloride], the “Biological Activity Rating” value was “A++ (With a protection index between 5.0 to 7.0, provides a comparable protection to compound P401 (10 μM) at 1.0 μM.)”.
With `C=CCN(CCN)C(C)c1cccc(Cl)c1F` (stereo not shown) [Compound 172, N1-allyl-N1-(1-(3-chloro-2-fluorophenyl)ethyl)ethane-1,2-diamine hydrochloride] the “Biological Activity Rating” value was “A++ (With a protection index between 5.0 to 7.0, provides a comparable protection to compound P401 (10 μM) at 1.0 μM.)”.
In the case of `CSCCN(CCN)C(C)c1cccc(Cl)c1F` (stereo not shown) [Compound 169, N1-(2-(methylthio)ethyl)-N1-(1-(3-chloro-2-fluorophenyl)ethyl) ethane-1,2-diamine], the “Biological Activity Rating” value is reported as “B (With a protection index between 5.0 to 7.0, provides a comparable protection to compound P401 (10 μM) at 10 μM.)”.
`CC(c1cc(Cl)ccc1Cl)N(CCN)C1CC1` (stereo not shown) [Compound 185, N1-(cyclopropyl)-N1-(1-(2,5-dichlorophenyl)ethyl)ethane-1,2-diamine hydrochloride] was tested, and the “Biological Activity Rating” value was “A++ (With a protection index between 5.0 to 7.0, provides a comparable protection to compound P401 (10 μM) at 1.0 μM.)”.
For `CCN(CCN)[C@@H](C)c1cccc(Cl)c1` [Compound 177, (S)—N1-(1-(3-chlorophenyl)ethyl)-N1-ethylethane-1,2-diamine dihydrochloride], the “Biological Activity Rating” value was “A (With a protection index over 7.0, provides a significantly better protection over compound P401 (10 μM) at 10 μM.)”.
`CC(c1cc(F)cc(F)c1Cl)N(CCN)C1CC1` (stereo not shown) [Compound 188, N′-[1-(2-chloro-3,5-difluoro-phenyl)ethyl]-N′-cyclopropyl-ethane-1,2-diamine hydrochloride] was tested, and the “Biological Activity Rating” value was “A++ (With a protection index between 5.0 to 7.0, provides a comparable protection to compound P401 (10 μM) at 1.0 μM.)”.
For `CC(c1cccc(Cl)c1F)N(CCN)C1CC1` (single isomer, unassigned; (+)) [Compound 220A, (+)-N1-(1-(3-chloro-2-fluorophenyl)ethyl)-N1-cyclopropylethane-1,2-diamine], the “Biological Activity Rating” value was “A++ (With a protection index between 5.0 to 7.0, provides a comparable protection to compound P401 (10 μM) at 1.0 μM.)”.
`CC(c1cccc(Cl)c1F)N(CCN)C1CCCC1` (stereo not shown) [Compound 184, N1-(1-(3-chloro-2-fluorophenyl)ethyl)-N1-cyclopentylethane-1,2-diamine dihydrochloride] was tested, and the “Biological Activity Rating” value was “A (With a protection index over 7.0, provides a significantly better protection over compound P401 (10 μM) at 10 μM.)”.

Same assay, conditions: third subset; A++++ or above correlates with IC50; A++ and A+++ as defined in the source
For `CC(c1scc(C#N)c1F)N(CCN)C1CC1` (stereo not shown) [Compound 297, 5-[1-[2-aminoethyl(cyclopropyl)amino]ethyl]-4-fluoro-thiophene-3-carbonitrile TFA salt], the “Biological Activity Rating” value was “A+++”.
In the case of `CC(c1cccc(F)c1Cl)N(CCN)C1CC1` (stereo not shown) [Compound 246], the “Biological Activity Rating” value is reported as “A+++”.
With `CC(c1c(Cl)ccc(Cl)c1F)N(CCN)C1CC1` (stereo not shown) [Compound 242] the “Biological Activity Rating” value was “A+++”.
